From US7202239B2, “Cyclohexylphenyl carboxamides tocolytic oxytocin receptor antagonists” (Wyeth, priority 2001, dated 2007)

These compounds were tested against human V2 vasopressin receptor subtype (Homo sapiens, UniProt P30518) (assay: Vasopressin binding in CHO cell membranes expressing human vasopressin V2 subtype receptors). Conditions: 100 nM, [3H]arginine vasopressin.
From the text: Vasopressin Binding in Chinese Hamster Ovary Cell Membranes Expressing Human Vasopressin V2 Subtype Receptors
Chinese Hamster Ovary (CHO) cells stably transfected with the human V2 subtype receptors were obtained from M. Thibonnier, Case Western Reserve University School of Medicine, Cleveland, Ohio.
A. Passaging and Amplification of Cells:
CHO cells transfected with the human vasopressin V2 subtype receptors obtained from M. Thibonnier (pZeoSV vector) are allowed to grow to confluency (approx. >90%) in T-150 flasks under sterile conditions, in a cell culture medium of F-12 Nutrient Mixture (HAM) with L-glutamine (Gibco Cat. # 11765-054) containing 15 mM HEPES (Gibco Cat. # 15630-080), 1% antibiotic/antimycotic (add 5 mL 100×, Gibco Cat. # 15240-062 per 500 mL F-12), 250 μg/mL Zeocin (add 1.25 mL of 100 mg/mL Invitrogen R-250-01 per 500 mL F-12) and 10% Fetal Bovine Serum (Qualified, heat inactivated, Gibco Cat. # 16140-063). The medium is removed by aspiration and the cells washed with 10 mL of Hank's Balanced Salt solution (Gibco Cat. # 14175-095). The salt solution is removed by aspiration and the cells trypsinized with 5 mL of trypsin-EDTA (0.05% trypsin, 0.53 mM EDTA-4Na, Gibco Cat. # 25300-070) for 1 min. The trypsin is removed by aspiration and the cells dislodged by tapping. Cell Culture medium (e.g. 30 mL for 1:30 split) is immediately added and mixed well to inactivate trypsin. 1 mL of detached cells is added to new culture flasks containing fresh Cell Culture medium (e.g. into 25 mL per T-150 flask), and mixed gently. The cells are incubated at 37° C. in 5% CO2. The medium is changed at 3 to 4 day interval (or as appropriate). The cells grow to confluency (approx. >75%–95%) within 7–8 days. All steps are done under sterile conditions. B. Membrane Preparation: The cells are washed twice gently with Hank's Balanced Salt solution (e.g. use 10 mL per T-150 flask). The excess solution is removed and the cells bathed for 15–30 min. in an enzyme-free Cell Dissociation Buffer (e.g. use 8 mL Hank's Based, Gibco Cat. # 13150-016 per T-150 flask) until cells are loosened. The contents are transferred to centrifuge tubes (50 mL) kept in an ice bath. All subsequent steps are done at 4° C. The tubes are centrifuged at 300× g for 15 min (1380 rpm on SORVAL, Model RT6000D, using the rotor for 50 mL tubes). The supernatant is discarded and the cells suspended in homogeneizing buffer(10 mM Tris-HCl containing 0.25 M sucrose and 1 mM EDTA, pH 7.4) ensuring that the volume of the buffer is about ten times the volume of the cell pellet. The cells are pooled into a centrifuge tube (50 mL) and homogenized with a Polytron at setting 6 for 10 sec. The homogenate is transferred into a Potter-Elvjehm homogeneizer and homogenized with 3 strokes. The homogenate is centrifuged at 1500×g for 60 min at 4° C. (3100 rpm using SORVAL, model RT6000D, using the rotor for 50 mL tubes). The pellet is discarded. The supernatant is centrifuged at 100,000×g for 60 min. at 4° C. (Beckman L8-80M ultracentrifuge; spin at 37,500 rpm with rotor type 70 Ti for 50 mL tubes; 38,000 rpm with type 80Ti for 15 mL tubes; or 35,800 rpm with rotor type 45Ti). The supernantant is discarded and the pellet suspended in 3 to 4 mL of Tris buffer (50 mM TRIS-HCl, pH 7.4). The protein content is estimated by the Bradford or Lowry method. The volume of the membrane suspension is adjusted with the membrane buffer (50 mM Tris-HCl containing 0.1% BSA and 0.1 mM PMSF) to give 3.0 mg/mL (or as appropriate) of protein. The membranes are aliquoted and stored at −70° C. C. Radioligand Binding Assay: In wells of a 96-well format microtiter plate, is added 90, 110 or 130 μL (to make up a final volume of 200 μL) of assay buffer containing 50 mM of Tris-HCl (pH 7.4), […], 1 mg % aprotinin, 1 mg % leupeptin, 2 mg % 1,10-phenanthroline, 10 mg % trypsin inhibitor, and 0.1 mM PMSF. The inhibitors are added on the day of the experiment. […]

Chain of human V2 vasopressin receptor subtype (P30518 whole entry): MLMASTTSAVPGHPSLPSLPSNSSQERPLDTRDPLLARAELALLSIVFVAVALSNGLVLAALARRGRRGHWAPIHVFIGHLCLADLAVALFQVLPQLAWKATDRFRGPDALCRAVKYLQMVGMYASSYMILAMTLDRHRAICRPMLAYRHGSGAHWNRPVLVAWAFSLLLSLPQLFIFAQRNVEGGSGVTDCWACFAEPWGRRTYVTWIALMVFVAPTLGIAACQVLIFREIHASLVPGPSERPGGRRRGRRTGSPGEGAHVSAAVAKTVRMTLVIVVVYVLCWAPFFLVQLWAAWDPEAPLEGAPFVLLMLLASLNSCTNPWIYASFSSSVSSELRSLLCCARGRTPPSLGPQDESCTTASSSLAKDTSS

Compound	inhibition at 0.1 µM	V2 % inhibition at 100 nM
COC(=O)c1ccc2c(c1)N(C(=O)c1ccc(C3CCCCC3)cc1)Cc1ccc(C(=O)N3CCN(C)CC3)n1C2.Cl [Example 1, Methyl 10-(4-cyclohexylbenzoyl)-3-[(4-methyl-1-piperazinyl)carbonyl]-10,11-dihydro-5H-pyrrolo[2,1-c][1,4]benzodiazepine-8-carboxylate hydrochloride salt]	3%	
CN1CCN(C(=O)c2ccc3n2Cc2ccc(C(=O)O)cc2N(C(=O)c2ccc(C4CCCCC4)cc2)C3)CC1 [Example 3, 10-(4-Cyclohexyl-benzoyl)-3-[(4-methyl-1-piperazinyl)carbonyl]-10,11-dihydro-5H-pyrrolo[2,1-c][1,4]benzodiazepine-8-carboxylic acid]	-4%	
CC(C)(C)c1ccc(C(=O)c2ccc3n2Cc2ccccc2N(C(=O)c2ccc(C4CCCCC4)cc2)C3)cc1 [Example 5, [4-(tert-Butyl)phenyl][10-(4-cyclohexyl-benzoyl)-10,11-dihydro-5H-pyrrolo[2,1-c][1,4]benzodiazepin-3-yl]methanone]	2%	
O=C(c1ccc(C2CCCCC2)cc1)N1Cc2ccc(C(=O)C(Cl)(Cl)Cl)n2Cc2ccccc21 [Example 7, 2,2,2-Trichloro-1-[10-(4-cyclohexyl-benzoyl)-10,11-dihydro-5H-pyrrolo[2,1-c][1,4]benzodiazepin-3-yl]-1-ethanone]	10%	
Cc1ccccc1C(=O)NNC(=O)c1ccc2n1Cc1ccccc1N(C(=O)c1ccc(C3CCCCC3)cc1)C2 [Example 12, 10-(4-Cyclohexyl-benzoyl)-N′-(2-methylbenzoyl)-10,11-dihydro-5H-pyrrolo[2,1-c][1,4]benzodiazepine-3-carbonyl-hydrazide]		7%
O=C(NNC(=O)C1CC1)c1ccc2n1Cc1ccccc1N(C(=O)c1ccc(C3CCCCC3)cc1)C2 [Example 13, 10-(4-Cyclohexyl-benzoyl)-N′-(cyclopropylcarbonyl)-10,11-dihydro-5H-pyrrolo[2,1-c][1,4]benzodiazepine-3-carbonyl-hydrazide]		18%
Cc1cccc(C(=O)NNC(=O)c2ccc3n2Cc2ccccc2N(C(=O)c2ccc(C4CCCCC4)cc2)C3)c1 [Example 14, 10-(4-Cyclohexyl-benzoyl)-N′-(3-methyl-benzoyl)-10,11-dihydro-5H-pyrrolo[2,1-c][1,4]benzodiazepine-3-carbonyl-hydrazide]		4%
O=C(NNC(=O)c1ccc2n1Cc1ccccc1N(C(=O)c1ccc(C3CCCCC3)cc1)C2)Nc1ccccc1 [Example 15, 2-{[10-(4-Cyclohexyl-benzoyl)-10,11-dihydro-5H-pyrrolo[2,1-c][1,4]benzodiazepin-3-yl]carbonyl}-N-phenyl-1-hydrazinecarboxamide]	11%	
CN(C)/C=C/C(=O)c1ccc2n1Cc1ccccc1N(C(=O)c1ccc(C3CCCCC3)cc1)C2 [Example 20, (E)-1-[10-(4-Cyclohexyl-benzoyl)-10,11-dihydro-5H-pyrrolo[2,1-c][1,4]benzodiazepin-3-yl]-3-(dimethylamino)-2-propen-1-one]	11%	
CN(N)C(=O)c1ccc2n1Cc1ccccc1N(C(=O)c1ccc(C3CCCCC3)cc1)C2 [Example 21, 10-(4-Cyclohexyl-benzoyl)-N-methyl-10,11-dihydro-5H-pyrrolo[2,1-c][1,4]benzodiazepine-3-carboxylic acid hydrazide]	13%	
O=C(O)c1ccc2n1Cc1ccccc1N(C(=O)c1ccc(C3CCCCC3)cc1)C2 [Example 22, 10-(4-Cyclohexyl-benzoyl)-10,11-dihydro-5H-pyrrolo[2,1 c][1,4]benzodiazepine-3-carboxylic acid]		19%

Same assay, conditions: [3H]arginine vasopressin, value in parentheses

Compound	IC50
CC(=O)c1ccc2n1Cc1ccccc1N(C(=O)c1ccc(C3CCCCC3)cc1)C2 [Example 6, 1-[10-(4-Cyclohexyl-benzoyl)-10,11-dihydro-5H-pyrrolo[2,1-c][1,4]benzodiazepin-3-yl]-ethanone]	> 1000 nM
NNC(=O)c1ccc2n1Cc1ccccc1N(C(=O)c1ccc(C3CCCCC3)cc1)C2 [Example 8, 10-(4-Cyclohexy-benzoyl)-10,11-dihydro-5H-pyrrolo[2,1-c][1,4]benzodiazepine-3-carboxylic acid hydrazide]	> 1000 nM
CC(=NNC(=O)c1ccc2n1Cc1ccccc1N(C(=O)c1ccc(C3CCCCC3)cc1)C2)N(C)C [Example 9, N′-{[10-(4-Cyclohexyl-benzoyl)-10,11-dihydro-5H-pyrrolo[2,1-c][1,4]benzodiazepin-3-yl]carbonyl}-N,N-dimethylethanehydrazonamide]	> 1000 nM
CN(C)C=NNC(=O)c1ccc2n1Cc1ccccc1N(C(=O)c1ccc(C3CCCCC3)cc1)C2 [Example 10, N′-{[10-(4-Cyclohexyl-benzoyl)-10,11-dihydro-5H-pyrrolo[2,1-c][1.4]benzodiazepin-3-yl]carbonyl}-N,N-dimethylhydrazonoformamide]	1160 nM
CC(=O)NNC(=O)c1ccc2n1Cc1ccccc1N(C(=O)c1ccc(C3CCCCC3)cc1)C2 [Example 11, N′-Acetyl-10-(4-cyclohexyl-benzoyl)-10,11-dihydro-5H-pyrrolo[2,1-c][1,4]benzodiazepine-3-carbonyl-hydrazide]	> 1000 nM
NC(=O)c1ccc2n1Cc1ccccc1N(C(=O)c1ccc(C3CCCCC3)cc1)C2 [Example 16, 10-(4-Cyclohexyl-benzoyl)-10,11-dihydro-5H-pyrrolo[2,1-c][1,4]benzodiazepin-3-carboxamide]	> 1000 nM
CN(C)/C=N/C(=O)c1ccc2n1Cc1ccccc1N(C(=O)c1ccc(C3CCCCC3)cc1)C2 [Example 17]	477 nM
C/C(=N\C(=O)c1ccc2n1Cc1ccccc1N(C(=O)c1ccc(C3CCCCC3)cc1)C2)N(C)C [Example 18]	294 nM
CN(C)NC(=O)c1ccc2n1Cc1ccccc1N(C(=O)c1ccc(C3CCCCC3)cc1)C2 [Example 19, 10-(4-Cyclohexyl-benzoyl)-N′-N′-dimethyl-10,11-dihydro-5H-pyrrolo[2,1-c][1,4]benzodiazepine-3-carbohydrazide]	> 1000 nM
O=C(c1ccc2n1Cc1ccccc1N(C(=O)c1ccc(C3CCCCC3)cc1)C2)N1CCN(c2ncccn2)CC1 [Example 23]	> 1000 nM
CN1CCN(C(=O)c2ccc3n2Cc2ccccc2N(C(=O)c2ccc(C4CCCCC4)cc2)C3)CC1 [Example 24, [10-(4-Cyclohexyl-benzoyl)-10,11-dihydro-5H-pyrrolo[2,1-c][1,4]benzodiazepin-3-yl](4-methyl-1-piperazinyl)-methanone]	> 1000 nM
O=C(c1ccc2n1Cc1ccccc1N(C(=O)c1ccc(C3CCCCC3)cc1)C2)N1CCC(N2CCCC2)CC1 [Example 25, [10-(4-Cyclohexyl-benzoyl)-10,11-dihydro-5H-pyrrolo[2,1-c][1,4]benzodiazepin-3-yl][4-(1-pyrrolidinyl)-1-piperidinyl]methanone]	> 1000 nM
O=C(c1ccc2n1Cc1ccccc1N(C(=O)c1ccc(C3CCCCC3)cc1)C2)N1CCC(N2CCCCC2)CC1 [Example 26, [1,4′]Bipiperidinyl-1′-yl-[10-(4-cyclohexyl-benzoyl)-10,11-dihydro-5H-pyrrolo[2,1-c][1,4]benzodiazepin-3-yl]-methanone]	> 1000 nM
